Measurements: US20250236613A1, “SARM1 MODULATORS, PREPARATIONS, AND USES THEREOF” (SIRONAX LTD., priority 2021, published 2025)

Target: SARM1 (50-724) (Homo sapiens (Human), UniProt Q6SZW1)
Assay: SARM1 (50-724) enzymatic assay
Format: biochemical
Details: SARM1 inhibitory activity; 2 nM SARM1 (50-724), 200 μM NMN activator, 100 μM NAD+ substrate, 1 h, LC-MS/MS
Description: The enzymatic assay was performed in a 384-well plate using Dulbecco's PBS buffer as the reaction buffer. Purified SARM1 (50-724) with a final concentration of 2 nM was pre-incubated with the test compound at 1% DMSO final assay concentration for 15 min at room temperature. The reaction was initiated by adding the mixture of 200 μM NMN as activator and 100 μM NAD^+ as substrate. After 1 h of incubation at room temperature, the reaction was terminated with 10 times volume of 70% acetonitrile, then centrifuged at 3800 rpm for 10 min. The samples were analyzed using LC-MS/MS after diluted to the proper concentration by 10 mM ammonium acetate (pH 9.75).

SARM1 (50-724), sequence (Q6SZW1 50-724): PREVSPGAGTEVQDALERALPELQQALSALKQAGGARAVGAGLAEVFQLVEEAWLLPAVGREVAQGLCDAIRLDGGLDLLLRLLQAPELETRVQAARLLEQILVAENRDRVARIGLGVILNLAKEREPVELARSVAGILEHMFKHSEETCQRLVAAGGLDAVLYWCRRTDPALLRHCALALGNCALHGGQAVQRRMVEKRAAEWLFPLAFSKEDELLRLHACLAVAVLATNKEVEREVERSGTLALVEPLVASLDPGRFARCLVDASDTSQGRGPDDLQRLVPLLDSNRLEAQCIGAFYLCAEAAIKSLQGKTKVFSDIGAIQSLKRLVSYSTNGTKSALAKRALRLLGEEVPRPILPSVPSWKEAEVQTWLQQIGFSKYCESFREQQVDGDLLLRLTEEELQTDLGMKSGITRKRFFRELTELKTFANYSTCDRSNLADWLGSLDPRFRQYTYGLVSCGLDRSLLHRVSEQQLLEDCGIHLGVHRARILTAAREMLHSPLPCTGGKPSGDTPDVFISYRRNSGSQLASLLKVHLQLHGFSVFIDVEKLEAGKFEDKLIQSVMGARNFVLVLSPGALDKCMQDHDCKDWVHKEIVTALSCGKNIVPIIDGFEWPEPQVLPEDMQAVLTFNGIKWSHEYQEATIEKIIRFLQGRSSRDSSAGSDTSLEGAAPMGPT

Row | IC50 [µM] | Structure (SMILES)
1 | < 5 | O=c1[nH]c2ccc(-c3cncc(Nc4cccnc4)c3)cc2o1 [Compound 105, 6-(5-(pyridin-3-ylamino)pyridin-3-yl)benzo[d]oxazol-2(3H)-one]
2 | < 5 | N#Cc1cccc(Nc2cncc(-c3ccc4[nH]c(=O)oc4c3)c2)c1 [Compound 107, 3-((5-(2-oxo-2,3-dihydrobenzo[d]oxazol-6-yl)pyridin-3-yl)amino)benzonitrile]
3 | < 5 | O=c1[nH]c2ccc(-c3cncc(Nc4ccncc4)c3)cc2o1 [Compound 111, 6-(5-(pyridin-4-ylamino)pyridin-3-yl)benzo[d]oxazol-2(3H)-one]
4 | < 5 | Cc1ccnnc1-c1ccc2[nH]c(=O)oc2c1 [Compound 94, 6-(4-methylpyridazin-3-yl)benzo[d]oxazol-2(3H)-one]
5 | < 5 | O=c1[nH]c2ccc(-c3cncc(Nc4ccccn4)c3)cc2o1 [Compound 113, 6-(5-(pyridin-2-ylamino)pyridin-3-yl)benzo[d]oxazol-2(3H)-one]
6 | < 5 | CNc1cncc(-c2ccc3[nH]c(=O)oc3c2)c1 [Compound 110, 6-(5-(methylamino)pyridin-3-yl)benzo[d]oxazol-2(3H)-one]
7 | < 5 | O=c1[nH]c2ccc(-c3cncc(Nc4cccnn4)c3)cc2o1 [Compound 118, 6-(5-(pyridazin-3-ylamino)pyridin-3-yl)benzo[d]oxazol-2(3H)-one]
8 | < 5 | O=c1[nH]c2ccc(-c3cncc(Nc4ccccc4F)c3)cc2o1 [Compound 102, 6-(5-((2-fluorophenyl)amino)pyridin-3-yl)benzo[d]oxazol-2(3H)-one]
9 | < 5 | O=c1[nH]c2ccc(-c3cncc(Nc4ccc(Cl)cc4)c3)cc2o1 [Compound 104, 6-(5-((4-chlorophenyl)amino)pyridin-3-yl)benzo[d]oxazol-2(3H)-one]
10 | < 5 | Cc1ccc(Nc2cncc(-c3ccc4[nH]c(=O)oc4c3)c2)cc1 [Compound 98, 6-(5-(p-tolylamino)pyridin-3-yl)benzo[d]oxazol-2(3H)-one]
11 | < 5 | O=c1[nH]c2ccc(-c3cc(Nc4ccccc4)cnn3)cc2o1 [Compound 112, 6-(5-(phenylamino)pyridazin-3-yl)benzo[d]oxazol-2(3H)-one]
12 | 15 to 30 | Cc1cc(C)c(-c2ccc3[nH]c(=O)oc3c2)cn1 [Compound 67, 6-(4,6-dimethylpyridin-3-yl)benzo[d]oxazol-2(3H)-one]
13 | < 5 | O=c1[nH]c2ccc(-c3cncc(Nc4cccc(Cl)c4)c3)cc2o1 [Compound 96, 6-(5-((3-chlorophenyl)amino)pyridin-3-yl)benzo[d]oxazol-2(3H)-one]
14 | < 5 | O=c1[nH]c2ccc(-c3cncc(Nc4ccc5c(c4)NCCC5)c3)cc2o1 [Compound 99, 6-(5-((1,2,3,4-tetrahydroquinolin-7-yl)amino)pyridin-3-yl)benzo[d]oxazol-2(3)-one]
15 | < 5 | COc1cccc(Nc2cncc(-c3ccc4[nH]c(=O)oc4c3)c2)c1 [Compound 97, 6-(5-((3-methoxyphenyl)amino)pyridin-3-yl)benzo[d]oxazol-2(3H)-one]
16 | < 5 | CC(C)(C)OC(=O)N1CCCc2ccc(Nc3cncc(-c4ccc5[nH]c(=O)oc5c4)c3)cc21 [Compound 106, tert-butyl 7-((5-(2-oxo-2,3-dihydrobenzo[d]oxazol-6-yl)pyridin-3-yl)amino)-3,4-dihydroquinoline-1(2H)-carboxylate]
17 | < 5 | Cc1ccncc1-c1ccc2[nH]c(=O)oc2c1 [Compound 40, 6-(4-methylpyridin-3-yl)benzo[d]oxazol-2(3H)-one]

More lines, now with the values behind:

Row | Structure (SMILES) | IC50 [µM]
18 | Cc1ccncc1-c1cncc(O)c1 [Compound 56, 4′-methyl-[3,3′-bipyridin]-5-ol] | 5 to 15
19 | Cc1ccncc1-c1ccc2[nH]ncc2c1 [Compound 24, 5-(4-methylpyridin-3-yl)-1H-indazole] | < 5
20 | Cc1ccncc1-c1ccc2[nH]cnc2c1 [Compound 25, 5-(4-methylpyridin-3-yl)-1H-benzo[d]imidazole] | < 5
21 | Cc1ccncc1-c1ccc2[nH]c(=O)oc2c1F [Compound 91, 7-fluoro-6-(4-methylpyridin-3-yl)benzo[d]oxazol-2(3H)-one] | 15 to 30
22 | Cc1ccncc1-c1cc2cn[nH]c2cn1 [Compound 49, 5-(4-methylpyridin-3-yl)-1H-pyrazolo[3,4-c]pyridine] | > 30
23 | Cc1ccncc1-c1cccc(O)c1F [Compound 13, 2-fluoro-3-(4-methylpyridin-3-yl)phenol] | < 5
24 | Cc1ccncc1-c1ccc(O)c(Cl)c1 [Compound 31, 2-chloro-4-(4-methylpyridin-3-yl)phenol] | < 5
25 | Cc1ccncc1-c1cnc2[nH]ncc2c1 [Compound 48, 5-(4-methylpyridin-3-yl)-1H-pyrazolo[3,4-b]pyridine] | 15 to 30
26 | Cc1ccncc1-c1ccc2[nH]c(=O)[nH]c2c1 [Compound 44, 5-(4-methylpyridin-3-yl)-1,3-dihydro-2H-benzo[d]imidazol-2-one] | < 5
27 | Cc1c[nH]c(=O)cc1-c1ccc2[nH]c(=O)oc2c1 [Compound 82, 6-(5-methyl-2-oxo-1,2-dihydropyridin-4-yl)benzo[d]oxazol-2(3H)-one] | 15 to 30
28 | Cc1ccncc1-c1cc(O)cc(C(F)(F)F)c1 [Compound 63, 3-(4-methylpyridin-3-yl)-5-(trifluoromethyl)phenol] | < 5
29 | Cc1ccncc1-c1ccc2[nH]c(=S)oc2c1 [Compound 75, 6-(4-methylpyridin-3-yl)benzo[d]oxazole-2(3H)-thione] | < 5
30 | Cc1ccncc1-c1cccc(S(N)(=O)=O)c1 [Compound 7, 3-(4-methylpyridin-3-yl)benzenesulfonamide] | < 5
31 | COc1cc(-c2cnccc2C)ccc1O [Compound 30, 2-methoxy-4-(4-methylpyridin-3-yl)phenol] | > 30
32 | Cc1ccncc1-c1cccc(O)c1Cl [Compound 27, 2-chloro-3-(4methylpyridin-3-yl)phenol] | > 30
33 | Cc1ccncc1-c1ccc2[nH]ccc2c1 [Compound 21, 5-(4-methylpyridin-3-yl)-1H-indole] | < 5
34 | Cc1ccncc1-c1ccc2c(c1)CCN2 [Compound 33, 5-(4-methylpyridin-3-yl)indoline] | 15 to 30
35 | Cc1ccncc1-c1ccc2c(c1)OCC(=O)N2 [Compound 45, 7-(4-methylpyridin-3-yl)-2H-benzo[b][1,4]oxazin-3(4H)-one] | 5 to 15
36 | Cc1ccncc1-c1ccc2c(c1)NC(=O)CO2 [Compound 51, 6-(4-methylpyridin-3-yl)-2H-benzo[b][1,4]oxazin-3(4H)-one] | < 5

Row | Structure (SMILES) | IC50 [µM]
37 | CC(=O)c1ccc(-c2cnccc2C)cc1O [Compound 38, 1-(2-hydroxy-4-(4-methylpyridin-3-yl)phenyl)ethan-1-one] | 5 to 15
38 | Cc1ccncc1-c1ccc2nc(N)ncc2c1 [Compound 71, 6-(4-methylpyridin-3-yl)quinazolin-2-amine] | 15 to 30
39 | Cc1ccncc1-c1ccc(N)c(O)c1 [Compound 42, 2-amino-5-(4-methylpyridin-3-yl)phenol] | < 5
40 | Cc1ccncc1-c1ccc(O)c(N)c1 [Compound 43, 2-amino-4-(4-methylpyridin-3-yl)phenol] | 5 to 15
41 | Cc1ccncc1-c1ccc2oc(=O)[nH]c2c1 [Compound 52, 5-(4-methylpyridin-3-yl)benzo[d]oxazol-2(3H)-one] | 5 to 15
42 | Cc1ccncc1-c1ccc2[nH]c(C#N)cc2c1 [Compound 88, 5-(4-methylpyridin-3-yl)-1H-indole-2-carbonitrile] | < 5
43 | Cc1ccncc1-c1ccc2[nH]nnc2c1 [Compound 36, 5-(4-methylpyridin-3-yl)-1H-benzol[d][1,2,3]triazole] | < 5
44 | Cc1ccncc1-c1ccc2c(c1)COCC(=O)N2 [Compound 80, 7-(4-methylpyridin-3-yl)-1,5-dihydrobenzo[e][1,4]oxazepin-2(3H)-one] | < 5
45 | Cc1ccncc1-c1cc2cc[nH]c2cc1F [Compound 34, 6-fluoro-5-(4-methylpyridin-3-yl)-1H-indole] | > 30
46 | Cc1ccncc1-c1ccc2c(c1)COC(=O)N2 [Compound 59, 6-(4-methylpyridin-3-yl)-1,4-dihydro-2H-benzo[d][1,3]oxazin-2-one] | < 5
47 | Cc1ccncc1-c1ccc2c(c1)CNC(=O)N2 [Compound 46, 6-(4-methylpyridin-3-yl)-3,4-dihydroquinazolin-2(1H)-one] | > 30
48 | Cc1ccncc1-c1ccc(O)cc1F [Compound 12, 3-fluoro-4-(4-methylpyridin-3-yl)phenol] | > 30
49 | Oc1cccc(-c2cccnc2)c1 [Compound 10, 3-(pyridin-3-yl)phenol] | 15 to 30
50 | Cc1ccncc1-c1ccc2c(c1)C(=O)NCC2 [Compound 18, 7-(4-methylpyridin-3-yl)-3,4-dihydroisoquinolin-1(2H)-one] | 15 to 30
51 | Cc1ccncc1-c1cc(O)cc(F)c1 [Compound 20, 3-fluoro-5-(4-methylpyridin-3-yl)phenol] | < 5
52 | Cc1ccncc1-c1cc(O)cc(C#N)c1 [Compound 5, 3-hydroxy-5-(4-methylpyridin-3-yl)benzonitrile] | < 5
53 | Cc1ccncc1-c1ccc2[nH]c(N)nc2c1 [Compound 64, 5-(4-methylpyridin-3-yl)-1H-benzo[d]imidazol-2-amine] | < 5
54 | Cc1ccncc1-c1cccc(O)c1C [Compound 26, 2-methyl-3-(4-methylpyridin-3-yl)phenol] | > 30
55 | Cc1ccncc1-c1ccc(O)c(O)c1F [Compound 39, 3-fluoro-4-(4-methylpyridin-3-yl)benzene-1,2-diol] | 15 to 30
